Patent US20230381271A1, “PROTOCOL TO MINIMIZE CALCINEURIN INHIBITOR NEPHROTOXICITY” (Aurinia Pharmaceuticals Inc., priority 0001, published 2023)
“Also recorded” adds a separate entry of the source.

Tests used:
mouse kidney = assay: MALDI-MSI localization in mouse kidney after IV administration; conditions: tail vein injection of parent drug, compared between voclosporin and cyclosporine A species
Protocol: Kidneys were cryosectioned and covered with a matrix for MALDI-MSI analysis. The sample was measured in a raster process in the mass spectrometer, resulting in a spatially resolved mass spectra. The detected molecules were visualized as a color intensity map (m/z 0%-100%). Histological staining of the sample was then performed. Histological staining and the MALDI-MSI measurements of the same sample were co-registered.

[1] = system: patients with lupus nephritis; conditions: patients treated with voclosporin; cited from earlier work
LN [2] = assay: 48 week study of LN treatment: voclosporin plus MMF and oral corticosteroids, with pharmacodynamic (eGFR-guided) dosing; format: in vivo, human; conditions: for Patients with CR at 24 weeks / Patients with CR at 48 weeks / Patients with PR at 24 weeks / Patients with PR at 48 weeks: patients with no dose reduction
Protocol: The study was conducted over a period of 48 weeks and safety was evaluated at 24 weeks.
Subjects were assessed after 24 weeks and 48 weeks as well as a subsequent evaluation at 50 weeks.
PR is a composite end-point that includes safety and efficacy: UPCR reduction of 50% from baseline and no use of rescue medication.
To determine the efficacy of the pharmacodynamics protocol wherein dosage is reduced or stopped according to the presence or absence of indicators of the decrease in eGFR experienced as a side effect, these three groups of patients were assessed after 24 weeks and 48 weeks of treatment in consideration of whether treatment was altered according to the invention protocol.
PR is defined as UPCR reduction of 50% from baseline and no use of rescue medication.

[3] = system: subjects with lupus nephritis; assay: Long-term continuation study: eGFR, UPCR, oral steroid dose; format: in vivo, human; conditions: for Corrected eGFR, mean / UPCR, mean: N = 116
[4] = system: subjects with lupus nephritis; assay: Long-term continuation study: adverse events; format: in vivo, human
LN [5] = assay: Low dosage protocol: clinical studies similar to Example 1, dosage reduced to 15.8 or 7.9 mg BID; format: in vivo, human
[6] = system: subjects with lupus nephritis; assay: 24-hour urinary electrolyte excretion concentrations in the lupus nephritis trial; format: in vivo, human; conditions: for Potassium urinary excretion concentration, change from baseline, mean ± SEM / Sodium urinary excretion concentration, change from baseline, mean ± SEM: baseline to one year, 24-hour urine
Text: Twenty-four-hour urine samples from 60 patients in each treatment arm were selected for urinary analysis of electrolytes. […] The mean change from baseline to one year in magnesium, potassium and sodium were presented as 24-hour urinary excretion concentrations.

[7] = system: subjects with biopsy-proven active lupus nephritis; assay: Pooled Phase 2 and Phase 3 lupus nephritis studies: complete renal response rate; format: in vivo, human; conditions: pooled data
Text: (§1) All patients were concurrently administered mycophenolate mofetil (MMF) (target 1 g BID) and rapidly-tapered, low-dose steroids.

[8] = system: subjects with active lupus nephritis; assay: Double-blind randomized controlled trial in active lupus nephritis: complete renal response; format: in vivo, human; conditions: at one year
subjects with LN = assay: Pooled Phase 2 and Phase 3 lupus nephritis studies: fasting lipid profile; format: in vivo, human
Protocol: as §1
Fasting total cholesterol, low-density lipoprotein cholesterol (LDL), high-density lipoprotein cholesterol (HDL), and triglycerides were measured at baseline and at a one year follow-up in a central, CLIA-certified laboratory.

[9] = High Dose 39.5 mg BID, 24 weeks, n=88
[10] = High Dose 39.5 mg BID, 48 weeks, n=88
[11] = High Dose 39.5 mg BID, patients with dose reductions (pharmacodynamically dosed)
[12] = Low Dose 23.7 mg BID, 48 weeks, n=89
[13] = Low Dose 23.7 mg BID, patients with dose reductions (pharmacodynamically dosed)
[14] = low dosage 23.7 mg BID + MMF + corticosteroids, whole group
[15] = any subgroup, either treatment arm, one year
[16] = change from baseline to one year

## C=C/C=C/C[C@@H](C)[C@@H](O)[C@H]1C(=O)N[C@@H](CC)C(=O)N(C)CC(=O)N(C)[C@@H](CC(C)C)C(=O)N[C@@H](C(C)C)C(=O)N(C)[C@@H](CC(C)C)C(=O)N[C@@H](C)C(=O)N[C@H](C)C(=O)N(C)[C@@H](CC(C)C)C(=O)N(C)[C@@H](CC(C)C)C(=O)N(C)[C@@H](C(C)C)C(=O)N1C [voclosporin]
Mouse kidney
  distribution, accumulation and intensity in the kidney (MALDI-MSI): relatively weak throughout the kidney, particularly in the cortex; also recorded: do not accumulate at high concentrations in the kidney
[1]
  Mean serum electrolyte concentrations: within normal ranges
LN [2]; [9]
  Patients with Dose Reduction: 47 (53.4) n(%)
  Patients with no Dose Reduction: 41 (46.6) n(%)
LN [2]; [10]
  Patients with Dose Reduction: 53 (60.2) n(%)
  Patients with no Dose Reduction: 35 (39.8) n(%)
LN [2]; [11]
  Patients with CR at 24 weeks, percent: (27.7) %
  Patients with CR at 48 weeks, percent: (45.3) %
  Patients with PR at 24 weeks, number: 34 n
  Patients with PR at 24 weeks, percent: (72.3) %
  Patients with PR at 48 weeks, percent: (77.4) %
LN [2]; High Dose 39.5 mg BID
  Patients with CR at 24 weeks: 11 (26.8) n(%)
  Patients with CR at 48 weeks: 11 (31.4) n(%)
  Patients with PR at 24 weeks: 24 (58.5) n(%)
  Patients with PR at 48 weeks: 22 (62.9) n(%)
LN [2]; Low Dose 23.7 mg BID, 24 weeks, n=89
  Patients with no Dose Reduction: 50 (56.2) n(%)
LN [2]; [12]
  Patients with Dose Reduction: 46 (51.7) n(%)
  Patients with no Dose Reduction: 43 (48.3) n(%)
LN [2]; [13]
  Patients with CR at 24 weeks, percent: (35.9) %
  Patients with CR at 48 weeks, percent: (52.2) %
  Patients with PR at 24 weeks, percent: (71.8) %
  Patients with PR at 48 weeks, number: 35 n
  Patients with PR at 48 weeks, percent: (76.1) %
LN [2]; Low Dose 23.7 mg BID
  Patients with CR at 24 weeks: 15 (30.0) n(%)
  Patients with CR at 48 weeks: 20 (46.5) n(%)
  Patients with PR at 24 weeks: 34 (68.0) n(%)
  Patients with PR at 48 weeks: 26 (60.5) n(%)
LN [2]; [14]
  patients showing CR at 24 weeks: 32.6%
  patients showing PR at 24 weeks: 70%
[3]; Month 12, 23.7 mg twice daily + MMF + low-dose steroids
  Corrected eGFR, mean: 80.7 mL/min/1.73 m^2
[3]; Month 12
  UPCR, mean: 0.86 mg/mg
[3]; all time points during the three years
  mean UPCR versus control: lower
[3]; at 36 months
  increase from baseline eGFR, compared to the active control group: +2.7 mL/min
[3]; over 36 months, 116 subjects
  mean estimated glomerular filtration rate (eGFR) over time: stable over 36 months
[3]; pre-treatment Baseline
  Corrected eGFR, mean: 79.0 mL/min/1.73 m^2
  UPCR, mean: 3.941 mg/mg
[4]; continuation study
  withdrawals: 12.9%
[4]; continuation study, four deaths in the active control group
  deaths in the treated group: no deaths
[4]; n = 116
  Adverse Event Leading to Voclosporin/Placebo Discontinuation: 10.3%
  Disease-Related Adverse Event: 51.7%
  Treatment-Related Adverse Event: 27.6%
  Treatment-Related Serious Adverse Event: 0.9%
[4]; n = 116, 23.7 mg twice daily + MMF + low-dose steroids
  Any Adverse Event: 88.8%
[4]; up to three years of treatment
  tolerability: well tolerated with no unexpected safety signals observed
LN [5]; dosage lowered to 7.9 mg BID quite early in the treatment
  complete or partial remission at reduced dosage: Substantial numbers of subjects showed complete or partial remission
LN [5]; dosage reduced almost immediately to 15.8 mg BID
  remission at reduced dosage: a substantial portion of subjects showed substantial remission
[6]; Non-responders, n = 32
  Potassium urinary excretion concentration, change from baseline, mean ± SEM: -2.48 ± 4.806 mmol/L
  Sodium urinary excretion concentration, change from baseline, mean ± SEM: -23.0 ± 12.69 mmol/L
[6]; Responders, n = 28
  Potassium urinary excretion concentration, change from baseline, mean ± SEM: -6.38 ± 24.0 mmol/L
  Sodium urinary excretion concentration, change from baseline, mean ± SEM: -27.6 ± 109 mmol/L
[6]; all subgroups except responders in the control arm, one year
  Decrease from baseline in urinary sodium excretion concentration: < 30.5 mmol/L
[6]; [15]
  Mean changes from baseline in urinary magnesium excretion concentration (magnitude): < 13.4 mg/dL
  Mean changes from baseline in urinary potassium excretion concentration (magnitude): < 6.4 mmol/L
[6]; at the studied dose, regardless of response to treatment
  changes from baseline in urinary electrolyte excretion concentrations of magnesium, potassium, and sodium: not clinically meaningful
[6]; eGFR decrease cohort, n = 28
  Potassium urinary excretion concentration, change from baseline, mean ± SEM: -4.58 ± 4.648 mmol/L
  Sodium urinary excretion concentration, change from baseline, mean ± SEM: -30.5 ± 11.92 mmol/L
[7]; one year of treatment, added to MMF and low-dose steroids
  complete renal response rate (CRR): 43.7%
[7]; one year, P<0.0001
  complete renal response, OR vs control: 2.76
[8]; 23.7 mg twice daily + MMF + low-dose steroids
  complete renal response rate: 40.8%
[8]; p<0.0001
  complete renal response, OR vs MMF and low-dose steroids only: 2.65
Subjects with LN; 23.7 mg BID arm
  HDL cholesterol, Change from Baseline to One Year, mean: -5.9 mg/dL
  LDL cholesterol, Change from Baseline to One Year, mean: -57.4 mg/dL
  Total cholesterol, Change from Baseline to One Year, mean: -82.6 mg/dL
  Triglycerides, Change from Baseline to One Year, mean: -74.1 mg/dL
Subjects with LN; Baseline, 23.7 mg BID arm, normal range 50 to 130
  LDL cholesterol, observed, mean: 174.0 mg/dL
Subjects with LN; Baseline, 23.7 mg BID arm, normal range 50 to 150
  Triglycerides, observed, mean: 239.6 mg/dL
Subjects with LN; Baseline, 23.7 mg BID arm, normal range 100 to 200
  Total cholesterol, observed, mean: 288.8 mg/dL
Subjects with LN; One Year, 23.7 mg BID arm
  LDL cholesterol, observed, mean: 114.3 mg/dL
  Total cholesterol, observed, mean: 196.6 mg/dL
  Triglycerides, observed, mean: 148.4 mg/dL
Subjects with LN; at baseline
  percentage of subjects with normal triglycerides: 32.3%
Subjects with LN; at one year
  percentage of subjects with normal triglycerides: 56.1%
Subjects with LN; baseline to one year
  increase in percentage of patients with total cholesterol in the normal range: about 42%
  increase in percentage with normal LDL: about 42%
Subjects with LN; [16]
  HDL cholesterol, LS Mean Difference Voclosporin vs Control: -0.6 mg/dL
  LDL cholesterol, LS Mean Difference Voclosporin vs Control: -10.3 mg/dL
  Total cholesterol, LS Mean Difference Voclosporin vs Control: -15.1 mg/dL
  Triglycerides, LS Mean Difference Voclosporin vs Control: -15.9 mg/dL
Subjects with LN; within the normal range at baseline, both arms
  Mean HDL levels over the study: remained stable throughout the study
